Among the data in patent publication US20060004197A1, “Sulfonamide-based compounds as protein tyrosine kinase inhibitors” (priority 2004, published 2006) are IC50 and inhibition values, retold here.

Common to all, as to assay type: biochemical
One assay has as its target T1, Recombinant human Src (Homo sapiens, UniProt P12931).
T1 construct: made in house; host or cells: baculovirus-insect cell system
Briefly: Src tyrosine kinase activity, poly E4Y / 32P-ATP phosphorylation assay. Particulars: for inhibition at 15 µg/mL: compound at 15 μg/mL.

For a further assay, the target named is Recombinant Csk (Homo sapiens, UniProt P41240). Briefly: Csk tyrosine kinase activity, poly E4Y / 32P-ATP phosphorylation assay.
The target in the next assay is FGF receptor (FGFr). Briefly: FGFr tyrosine kinase activity, poly E4Y / 32P-ATP phosphorylation assay. The settings on record: Table 2, Formula I compounds; NI = no inhibition at 100 μg/mL.
[1] abbreviates: Table 2, Formula I compounds, NI = no inhibition at 100 μg/mL.
Setting [2] is: Table 3, Formula II compounds, NI = no inhibition at 100 μg/mL.
The mark [3] stands for this setting: poly E4Y / 32P-ATP, Formula IV compounds.
Where [4] appears, read: Table 6, Formula V compounds, read-out: % Inhibition at 15 μg/mL Src (%).

Read-outs that look alike come from different tables or passages of the source.

Chain of Recombinant Csk (P41240 whole entry, species assumed): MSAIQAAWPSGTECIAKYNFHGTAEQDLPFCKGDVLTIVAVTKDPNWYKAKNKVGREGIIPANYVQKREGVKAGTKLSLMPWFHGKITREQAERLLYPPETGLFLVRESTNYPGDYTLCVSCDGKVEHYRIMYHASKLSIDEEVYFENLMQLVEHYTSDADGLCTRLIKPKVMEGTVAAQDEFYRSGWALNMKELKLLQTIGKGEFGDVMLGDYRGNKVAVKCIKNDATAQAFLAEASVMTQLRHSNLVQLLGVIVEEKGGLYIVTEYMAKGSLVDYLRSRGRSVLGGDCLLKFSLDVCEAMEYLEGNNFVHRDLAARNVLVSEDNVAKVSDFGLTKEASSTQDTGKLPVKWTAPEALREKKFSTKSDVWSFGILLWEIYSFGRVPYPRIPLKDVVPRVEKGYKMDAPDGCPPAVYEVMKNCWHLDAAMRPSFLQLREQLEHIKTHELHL
T1 sequence (P12931 whole entry): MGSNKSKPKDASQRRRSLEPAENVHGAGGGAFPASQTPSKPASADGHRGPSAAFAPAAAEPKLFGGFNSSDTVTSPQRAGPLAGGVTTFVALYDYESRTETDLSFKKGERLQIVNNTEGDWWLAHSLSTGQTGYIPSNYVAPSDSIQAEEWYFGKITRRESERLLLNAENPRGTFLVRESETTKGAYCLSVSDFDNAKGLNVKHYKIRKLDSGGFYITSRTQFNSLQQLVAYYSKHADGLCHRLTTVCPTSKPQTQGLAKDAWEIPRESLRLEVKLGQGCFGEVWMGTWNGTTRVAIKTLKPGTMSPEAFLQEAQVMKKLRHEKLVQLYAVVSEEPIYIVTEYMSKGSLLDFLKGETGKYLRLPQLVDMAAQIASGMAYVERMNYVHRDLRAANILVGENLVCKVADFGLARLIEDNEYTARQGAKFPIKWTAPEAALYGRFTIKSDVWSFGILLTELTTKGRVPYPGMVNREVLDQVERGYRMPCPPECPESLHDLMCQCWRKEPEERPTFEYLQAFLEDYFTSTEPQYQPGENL

On to `COc1ccc(Sc2cc(NS(=O)(=O)c3ccc(C)cc3)c(NS(=O)(=O)c3ccc(C)cc3)cc2[N+](=O)[O-])cc1` [Compound 4a, N-[4-(4-methoxy-phenylsulfanyl)-5-nitro-2-(4-toluenesulfonylamino)-phenyl]-4-toluenesulfonamide], for which the IC50 was found to be 3.4 µM at Recombinant human Src (setting [1]), 10.8 µM at Recombinant Csk (setting [1]) and 5.8 µM at FGF receptor (FGFr).

Take `COc1ccccc1Sc1cc(NS(=O)(=O)c2ccc(C)cc2)c(NS(=O)(=O)c2ccc(C)cc2)cc1[N+](=O)[O-]` [Compound 4b, N-[4-(2-methoxy-phenylsulfanyl)-5-nitro-2-(4-toluenesulfonylamino)-phenyl]-4-toluenesulfonamide]: the values for the IC50 on Recombinant human Src (setting [1]), at Recombinant Csk (setting [1]) and against FGF receptor (FGFr) were 7 µM, 15 µM and 20 µM, respectively.

Take `COc1cccc(Sc2cc(NS(=O)(=O)c3ccc(C)cc3)c(NS(=O)(=O)c3ccc(C)cc3)cc2[N+](=O)[O-])c1` [Compound 4c, N-[4-(3-methoxy-phenylsulfanyl)-5-nitro-2-(4-toluenesulfonylamino)-phenyl]-4-toluenesulfonamide]: the IC50 at Recombinant human Src (setting [1]) was 3.5 µM; on Recombinant Csk (setting [1]), 8.3 µM; at FGF receptor (FGFr), 7.5 µM.

As for `Cc1ccc(S(=O)(=O)Nc2cc(Sc3ccc(O)cc3)c([N+](=O)[O-])cc2NS(=O)(=O)c2ccc(C)cc2)cc1` [Compound 4d, N-[4-(4-hydroxy-phenylsulfanyl)-5-nitro-2-(4-toluenesulfonylamino)-phenyl]-4-toluenesulfonamide], the figures for the IC50 at Recombinant human Src (setting [1]), on Recombinant Csk (setting [1]) and at FGF receptor (FGFr) were 5.5 µM, 23.9 µM and 23.9 µM, respectively.

Turning to `Cc1ccc(S(=O)(=O)Nc2cc(Sc3ccc(Cl)cc3)c([N+](=O)[O-])cc2NS(=O)(=O)c2ccc(C)cc2)cc1` [Compound 4e, N-[4-(4-chloro-phenylsulfanyl)-5-nitro-2-(4-toluenesulfonylamino)-phenyl]-4-toluenesulfonamide], the IC50 at Recombinant human Src (setting [1]) came out at 8 µM; on Recombinant Csk (setting [1]), 23 µM; against FGF receptor (FGFr) it was 1.7 µM.

Consider `Cc1ccc(S(=O)(=O)Nc2cc(Sc3ccccc3Cl)c([N+](=O)[O-])cc2NS(=O)(=O)c2ccc(C)cc2)cc1` [Compound 4f, N-[4-(2-chloro-phenylsulfanyl)-5-nitro-2-(4-toluenesulfonylamino)-phenyl]-4-toluenesulfonamide], for which the figures for the IC50 at Recombinant human Src (setting [1]), on Recombinant Csk (setting [1]) and against FGF receptor (FGFr) were 2.5 µM, 10.8 µM and 10.8 µM, respectively.

With `Cc1ccc(S(=O)(=O)Nc2cc(Sc3cccc(Cl)c3)c([N+](=O)[O-])cc2NS(=O)(=O)c2ccc(C)cc2)cc1` [Compound 4g, N-[4-(3-chloro-phenylsulfanyl)-5-nitro-2-(4-toluenesulfonylamino)-phenyl]-4-toluenesulfonamide], the IC50 turned out to be 1.6 µM on Recombinant human Src (setting [1]), 9.1 µM on Recombinant Csk (setting [1]) and 5.8 µM against FGF receptor (FGFr).

On to `Cc1ccc(S(=O)(=O)Nc2cc(Sc3ccc(F)cc3)c([N+](=O)[O-])cc2NS(=O)(=O)c2ccc(C)cc2)cc1` [Compound 4h, N-[4-(4-fluoro-phenylsulfanyl)-5-nitro-2-(4-toluenesulfonylamino)-phenyl]-4-toluenesulfonamide], for which the IC50 on Recombinant human Src (setting [1]) came out at 1.8 µM; at Recombinant Csk (setting [1]) it was 8.6 µM; against FGF receptor (FGFr), 7.8 µM.

For `Cc1ccc(Sc2cc(NS(=O)(=O)c3ccc(C)cc3)c(NS(=O)(=O)c3ccc(C)cc3)cc2[N+](=O)[O-])cc1` [Compound 4i, N-[5-nitro-2-(4-toluenesulfonylamino)-4-(p-tolylsulfanyl)-phenyl]-4-toluenesulfonamide], the figures for the IC50 at Recombinant human Src (setting [1]), on Recombinant Csk (setting [1]) and against FGF receptor (FGFr) were 1.7 µM, 10.3 µM and 5.1 µM, respectively.

As for `Cc1ccc(S(=O)(=O)Nc2cc(Sc3ccccc3C)c([N+](=O)[O-])cc2NS(=O)(=O)c2ccc(C)cc2)cc1` [Compound 4j, N-[5-nitro-2-(4-toluenesulfonylamino)-4-(o-tolylsulfanyl)-phenyl]-4-toluenesulfonamide], the IC50 on Recombinant human Src (setting [1]) stood at 1.7 µM; at Recombinant Csk (setting [1]) it was 12 µM; against FGF receptor (FGFr) it was 8.6 µM.

Turning to `Cc1ccc(S(=O)(=O)Nc2cc(Sc3cccc(C)c3)c([N+](=O)[O-])cc2NS(=O)(=O)c2ccc(C)cc2)cc1` [Compound 4k, N-[5-nitro-2-(4-toluenesulfonylamino)-4-(m-tolylsulfanyl)-phenyl]-4-toluenesulfonamide], the IC50 at Recombinant human Src (setting [1]) is 1.9 µM; at Recombinant Csk (setting [1]), 9.4 µM; against FGF receptor (FGFr) it was 3.1 µM.

On to `Cc1ccc(S(=O)(=O)Nc2cc(Sc3c(C)cccc3C)c([N+](=O)[O-])cc2NS(=O)(=O)c2ccc(C)cc2)cc1` [Compound 4m, N-[4-(2,6-dimethyl-phenylsulfanyl)-5-nitro-2-(4-toluenesulfonylamino)-phenyl]-4-toluenesulfonamide], for which the figures for the IC50 on Recombinant human Src (setting [1]), on Recombinant Csk (setting [1]) and against FGF receptor (FGFr) were 1 µM, 5.4 µM and 4.7 µM, respectively.

With `Cc1ccc(S(=O)(=O)Nc2cc(Sc3ccccc3C(C)C)c([N+](=O)[O-])cc2NS(=O)(=O)c2ccc(C)cc2)cc1` [Compound 4n, N-[4-(2-isopropyl-phenylsulfanyl)-5-nitro-2-(4-toluenesulfonylamino)-phenyl]-4-toluenesulfonamide], the IC50 at Recombinant human Src (setting [1]) worked out at 1.3 µM; at Recombinant Csk (setting [1]) it was 5.7 µM; at FGF receptor (FGFr), 4.3 µM.

As to `Cc1ccc(S(=O)(=O)Nc2cc(Sc3ccccc3)c([N+](=O)[O-])cc2NS(=O)(=O)c2ccc(C)cc2)cc1` [Compound 4o, N-[5-nitro-4-phenylsulfanyl-2-(4-toluenesulfonylamino)-phenyl]-4-toluenesulfonamide], the half-inhibitory concentration (IC50) was 1.3 µM on Recombinant human Src (setting [1]), 5.7 µM on Recombinant Csk (setting [1]) and 1.8 µM against FGF receptor (FGFr).

As to `Cc1ccc(S(=O)(=O)Nc2cc(SCc3ccco3)c([N+](=O)[O-])cc2NS(=O)(=O)c2ccc(C)cc2)cc1` [Compound 4p, N-[4-(furan-2-ylmethylsulfanyl)-5-nitro-2-(4-toluenesulfonylamino)-phenyl]-4-toluenesulfonamide], the figures for the IC50 on Recombinant human Src (setting [1]), at Recombinant Csk (setting [1]) and on FGF receptor (FGFr) were 1.6 µM, 11.3 µM and 7.3 µM, respectively.

For `Cc1ccc(S(=O)(=O)Nc2cc(SCc3ccccc3)c([N+](=O)[O-])cc2NS(=O)(=O)c2ccc(C)cc2)cc1` [Compound 4t, N-[4-benzylsulfanyl-5-nitro-2-(4-toluenesulfonylamino)-phenyl]-4-toluenesulfonamide], the values for the IC50 on Recombinant human Src (setting [1]) and on Recombinant Csk (setting [1]) were 1.2 µM and 5.5 µM, respectively.

Take `Cc1ccc(S(=O)(=O)Nc2ccc(Cl)cc2NS(=O)(=O)c2ccc(C)cc2)cc1` [Compound 6, N-[4-chloro-2-(4-toluenesulfonylamino)-phenyl]-4-toluenesulfonamide]: the IC50 on Recombinant human Src (setting [2]) and on Recombinant Csk (setting [2]) was > 222 µM in each case.

On to `COc1ccc(Oc2ccc(NS(=O)(=O)c3ccc([N+](=O)[O-])cc3)c(NS(=O)(=O)c3ccc([N+](=O)[O-])cc3)c2)cc1` [Compound 12r, N-[4-(4-methoxy-phenoxy)-2-(4-nitrobenzenesulfonylamino)-phenyl]-4-nitrobenzenesulfonamide], for which the IC50 on Recombinant human Src (setting [2]) was 6.6 µM; on Recombinant Csk (setting [2]), > 167 µM.

For the molecule `Cc1ccc(S(=O)(=O)Nc2ccc(-n3cnc4ccccc43)cc2NS(=O)(=O)c2ccc(C)cc2)cc1` [Compound 17b, N-[4-(benzimidazol-1-yl)-2-(4-toluenesulfonylamino)-phenyl]-4-toluenesulfonamide], the IC50 at Recombinant human Src (setting [2]) worked out at 21 µM; on Recombinant Csk (setting [2]) it was 83 µM.

In the case of `COc1ccc(Oc2ccc(NS(=O)(=O)c3ccc(C)cc3)c(OP(=O)(O)O)c2)cc1` [Compound 43, [5-(4-methoxy-phenoxy)-2-(4-toluenesulfonylamino)-phenyl]-phosphate], the values for the 50% inhibitory concentration (IC50) at Recombinant human Src (setting [3]) and at Recombinant Csk (setting [3]) were 13 µM and > 215 µM, respectively.

Consider `COC(=O)c1cc(Oc2ccc(OC)cc2)ccc1NS(=O)(=O)c1ccc(C)cc1` [Compound 67, methyl 5-(4-methoxy-phenoxy)-2-(4-toluenesulfonylamino)-benzoate], for which the IC50 on Recombinant human Src (setting [3]) and at Recombinant Csk (setting [3]) was > 234 µM throughout.

As to `CCCC(=O)Nc1cc(Oc2ccc(OC)cc2)ccc1NS(=O)(=O)c1ccc(C)cc1` [Compound 71z, N-[5-(4-methoxy-phenoxy)-2-(4-toluenesulfonylamino)-phenyl]-butyramide], on Recombinant human Src (read-out: % Inhibition at 15 μg/mL Src %), the inhibition at 15 µg/mL was 5%.

As for `COc1ccc(Oc2ccc3[nH]c(=O)n(S(=O)(=O)c4ccc(C)cc4)c3c2)cc1` [Compound 72a, 6-(4-methoxy-phenoxy)-1-(4-toluenesulfonyl)-1,3-dihydro-benzoimidazol-2-one], at Recombinant human Src (setting [4]), the inhibition at 15 µg/mL was 21%.

For `COc1ccc(Oc2ccc3c(c2)[nH]c(=O)n3S(=O)(=O)c2ccc(C)cc2)cc1` [Compound 72b, 5-(4-methoxy-phenoxy)-1-(4-toluenesulfonyl)-1,3-dihydro-benzoimidazol-2-one], the inhibition at 15 µg/mL on Recombinant human Src (setting [4]) stood at 19%.

On to `COc1ccc(Oc2ccc3c(c2)n(S(=O)(=O)c2ccc(C)cc2)c(=O)n3S(=O)(=O)c2ccc(C)cc2)cc1` [Compound 72c, 5-(4-methoxy-phenoxy)-1,3-bis-(4-toluenesulfonyl)-1,3-dihydro-benzoimidazol-2-one], for which the inhibition at 15 µg/mL on Recombinant human Src (setting [4]) was found to be 22%.

Take `COc1ccc(Oc2ccc3c(c2)NS(=O)(=O)N3)cc1` [Compound 72d, 5-(4-methoxy-phenoxy)-1,3-dihydro-benzo[1,2,5]thiadiazole 2,2-dioxide]: the inhibition at 15 µg/mL at Recombinant human Src (setting [4]) is 12%.

As for `COc1ccc(Oc2ccc3[nH]c(=O)[nH]c3c2)cc1` [Compound 72e, 5-(4-methoxy-phenoxy)-1,3-dihydro-benzoimidazol-2-one], on Recombinant human Src (setting [4]), the inhibition at 15 µg/mL worked out at 4%.

With `COc1ccc(Oc2ccc3c(c2)NS(=O)(=O)N3S(=O)(=O)c2ccc(C)cc2)cc1` [Compound 72f, 5-(4-methoxy-phenoxy)-1-(4-toluenesulfonyl)-1,3-dihydro-benzo[1,2,5]thiadiazole 2,2-dioxide], the inhibition at 15 µg/mL on Recombinant human Src (setting [4]) was 14%.
